Reference: publication PMC4728560 (Scientific Reports, 2016)

System: Bcl-xL inhibition of cBidmt1/Bax
Experiment: In vitro reconstitution liposome permeabilization, cBidmt1/Bax with Bcl-xL
Format: biochemical
Conditions: ANTS/DPX liposomes, 100 nM Bax, 20 nM cBidmt1, pre-incubation pH 9, 45 min, 37 °C, 5 h, pH 7
From the text: This purified assay system measures direct interactions in which full-length untagged Bcl-xL inhibits permeabilization by binding full-length caspase 8 cleaved Bid (cBid) and/or full-length untagged Bax, thereby preventing Bax oligomerization in membranes. […] In these assays liposome permeabilization by activated Bax releases the entrapped fluorophore/quencher pair 8-aminonaphthalene-1,3,6-trisulfonic acid (ANTS)/p-xylene-bispyridinium (DPX), resulting in a measurable increase of fluorescence.
(A–E) in vitro reconstitution assay on liposome permeabilization. […] The treated Bcl-xL was then added to reactions containing ANTS-DPX liposomes, 100 nM Bax and 20 nM of either cBid (A,B) or cBidmt1(C,D) at pH 7. Liposome permeabilization was quantified by fluorescence after 5h incubation at 37 °C where 100% release was defined as the fluorescence change due to lipid solubilization with 1% Triton X-100. […] Error bars, std. dev. n = 3. […] Cyto c extra-mito: in the supernatant, analysed by Western blot. […]
Figure 10 A,B) or cBid mt1 (Supplementary Figure 10 C,D) at pH 7 to quantify the activity of Bcl-xL inhibition of liposome permeablization. […]
then added to reactions containing ANTS-DPX liposomes, 100nM Bax and 20nM of either c Bid (A, C) or cBid mt1(B, D) at pH 7 and liposome permeabilization was quantified by fluorescence […]

## TCTP: Translationally Controlled Tumor Protein (TCTP/tpt1), recombinant full-length
  effect on Bcl-xL inhibition of cBidmt1/Bax-mediated liposome permeabilization: enhanced Bcl-xL inhibition
